Where two headings read alike, the source gives them in different places. Where no end group is shown, it is not given here.

What all share (assay type): cell-based
The target in one experiment is T1, human Y2 receptor (Homo sapiens, UniProt P49146).
T1 construct: expressed in transfected cells; host or cells: COS-7 cells, transient transfection, co-transfected with Gqi5
T1 sequence (P49146 1-381): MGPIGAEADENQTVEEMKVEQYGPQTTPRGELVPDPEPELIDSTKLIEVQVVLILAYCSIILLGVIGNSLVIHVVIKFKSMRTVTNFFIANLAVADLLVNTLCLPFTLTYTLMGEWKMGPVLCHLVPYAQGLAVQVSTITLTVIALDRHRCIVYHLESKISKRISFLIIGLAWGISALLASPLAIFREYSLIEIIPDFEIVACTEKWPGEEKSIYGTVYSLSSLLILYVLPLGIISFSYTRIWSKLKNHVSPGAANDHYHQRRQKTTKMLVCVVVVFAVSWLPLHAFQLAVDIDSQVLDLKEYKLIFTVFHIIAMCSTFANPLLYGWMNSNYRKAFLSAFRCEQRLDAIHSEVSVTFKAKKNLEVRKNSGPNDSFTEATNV
Put plainly: Human Y2 receptor potency assay (inositol phosphate turnover). How it is done: Potency of the test compounds on the human Y2 receptor is determined by performing dose-response experiments in COS-7 cells transiently transfected with the human Y2 receptor as well as a promiscuous G protein, Gqi5 which ensures that the Y2 receptor couples through a Gq pathway leading to an increase in inositol phosphate turnover. […] After stimulation with various concentrations of peptide for 45 min at 37 C, cells are extracted with 10% ice-cold perchloric acid followed by incubation on ice for 30 min. […] Determinations are made in duplicates.

For a further experiment, the target named is T2, human Y1 receptor (Homo sapiens, UniProt P25929).
T2 construct: expressed in transfected cells; host or cells: COS-7 cells
T2 sequence (P25929 1-384): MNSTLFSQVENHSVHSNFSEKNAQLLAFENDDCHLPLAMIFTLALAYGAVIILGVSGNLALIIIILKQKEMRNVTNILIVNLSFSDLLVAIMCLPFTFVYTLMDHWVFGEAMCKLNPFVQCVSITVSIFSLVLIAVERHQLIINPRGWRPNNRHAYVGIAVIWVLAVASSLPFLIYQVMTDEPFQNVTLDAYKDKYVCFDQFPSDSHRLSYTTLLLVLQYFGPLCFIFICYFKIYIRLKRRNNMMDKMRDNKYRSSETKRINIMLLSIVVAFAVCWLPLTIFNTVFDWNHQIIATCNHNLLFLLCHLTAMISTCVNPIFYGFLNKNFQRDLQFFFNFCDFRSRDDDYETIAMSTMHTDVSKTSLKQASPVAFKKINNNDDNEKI
The experiment is described as follows: Human Y1 receptor potency assay (inositol phosphate turnover). The protocol: Cells are washed twice in buffer, 20 mM HEPES, pH 7.4, supplemented with 140 mM NaCl, 5 mM KCl, 1 mM MgSO4, 1 mM CaCl2, 10 mM glucose, 0.05% (w/v) bovine serum; and are incubated in 0.5 ml buffer supplemented with 10 mM LiCl at 37 C for 30 min. After stimulation with various concentrations of peptide for 45 min at 37 C, cells are extracted with 10% ice-cold perchloric acid followed by incubation on ice for 30 min. The resulting supernatants are neutralized with KOH in HEPES buffer, and the generated [3H]-inositol phosphate are purified on Bio-Rad AG 1-X8 anion-exchange resin and counted in a beta counter. Determinations are made in duplicates. EC50 values were calculated using a standard pharmacological data handling software, Prism 3.0 (graphpad Sofware, San Diego, USA).
Protocol as for the Y2 potency assay, except that human Y1-transformed COS-7 cells are used.

Another experiment deals with T3, human Y4 receptor (Homo sapiens, UniProt P50391).
T3 construct: expressed in transfected cells; host or cells: COS-7 cells
The experiment is described as follows: Human Y4 receptor potency assay (inositol phosphate turnover). The protocol:
After stimulation with various concentrations of peptide for 45 min at 37 C, cells are extracted with 10% ice-cold perchloric acid followed by incubation on ice for 30 min. The resulting supernatants are neutralized with KOH in HEPES buffer, and the generated [3H]-inositol phosphate are purified on Bio-Rad AG 1-X8 anion-exchange resin and counted in a beta counter. Determinations are made in duplicates. […] Protocol as for the Y2 potency assay, except that human Y4-transformed COS-7 cells are used.

Setting [1] is: COS-7 cells transiently transfected with human Y2 receptor and Gqi5, [3H]-inositol phosphate turnover, peptide 45 min at 37 C, read-out: hY2 EC50.
The mark [2] stands for this setting: human Y1-transformed COS-7 cells, [3H]-inositol phosphate turnover, peptide 45 min at 37 C, read-out: hY1 EC50.

T3 sequence (P50391 whole entry): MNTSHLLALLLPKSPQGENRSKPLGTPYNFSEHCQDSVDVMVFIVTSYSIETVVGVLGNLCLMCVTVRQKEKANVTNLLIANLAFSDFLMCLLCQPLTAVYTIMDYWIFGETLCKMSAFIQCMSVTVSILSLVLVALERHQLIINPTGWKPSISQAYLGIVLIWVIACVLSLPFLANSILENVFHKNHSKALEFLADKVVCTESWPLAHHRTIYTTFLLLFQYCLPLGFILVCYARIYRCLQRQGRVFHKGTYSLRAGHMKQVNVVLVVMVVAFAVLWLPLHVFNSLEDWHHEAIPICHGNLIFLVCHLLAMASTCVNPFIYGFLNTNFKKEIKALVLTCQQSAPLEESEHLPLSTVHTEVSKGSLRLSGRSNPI

Regarding `CC[C@H](C)[C@H](NC(=O)[C@H](Cc1ccc(O)cc1)NC(=O)[C@H](CCCNC(=N)N)NC(=O)[C@H](CCCNC(=N)N)NC(=O)[C@H](CC(C)C)NC(=O)[C@H](CC(=O)O)NC(=O)[C@H](C)NC(=O)[C@H](C)NC(=O)[C@H](Cc1ccc(O)cc1)NC(=O)[C@H](CCC(N)=O)NC(=O)[C@H](C)NC(=O)[C@H](CCSC)NC(=O)[C@H](CCC(N)=O)NC(=O)[C@H](CCC(=O)O)NC(=O)[C@@H]1CCCN1C(=O)[C@@H](NC(=O)[C@H](C)NC(=O)[C@H](CC(N)=O)NC(=O)[C@H](CCC(=O)O)NC(=O)CNC(=O)[C@@H]1CCCN1C(=O)[C@H](Cc1ccc(O)cc1)NC(=O)[C@@H](NC(=O)[C@@H]1CCCN1C(=O)[C@H](CCC(=O)O)NC(=O)[C@H](CC(C)C)NC(=O)[C@@H]1CCCN1)C(C)C)[C@@H](C)O)C(=O)N[C@@H](CC(N)=O)C(=O)N[C@@H](CCSC)C(=O)N[C@@H](CC(C)C)C(=O)N[C@H](C(=O)N[C@@H](CCCNC(=N)N)C(=O)N1CCC[C@H]1C(=O)N[C@@H](CCCNC(=N)N)C(=O)N[C@@H](Cc1ccc(O)cc1)C(N)=O)[C@@H](C)O` [[Glu-10]-PP(2-36), [Glu10]PP2-36], the EC50 (usually the concentration giving half of the maximal effect) at human Y2 receptor was > 1000 nM.
On to `CCCC[C@H](NC(=O)[C@H](CCC(N)=O)NC(=O)[C@H](CCC(=O)O)NC(=O)[C@@H]1CCCN1C(=O)[C@@H](NC(=O)[C@H](C)NC(=O)[C@H](CC(N)=O)NC(=O)[C@H](CC(=O)O)NC(=O)CNC(=O)[C@@H]1CCCN1C(=O)[C@H](Cc1ccc(O)cc1)NC(=O)[C@@H](NC(=O)[C@@H]1CCCN1C(=O)[C@H](CCC(=O)O)NC(=O)[C@H](CC(C)C)NC(=O)[C@@H]1CCCN1)C(C)C)[C@@H](C)O)C(=O)N[C@@H](C)C(=O)N[C@@H](CCC(N)=O)C(=O)N[C@@H](Cc1ccc(O)cc1)C(=O)N[C@@H](C)C(=O)N[C@@H](C)C(=O)N[C@@H](CC(=O)O)C(=O)N[C@@H](CC(C)C)C(=O)N[C@@H](CCCNC(=N)N)C(=O)N[C@@H](CCCNC(=N)N)C(=O)N[C@@H](Cc1ccc(O)cc1)C(=O)N[C@H](C(=O)N[C@@H](CC(N)=O)C(=O)N[C@@H](CCCC)C(=O)N[C@@H](CC(C)C)C(=O)N[C@H](C(=O)N[C@@H](CCCNC(=N)N)C(=O)N1CCC[C@H]1C(=O)N[C@@H](CCCNC(=N)N)C(=O)N[C@@H](Cc1ccc(O)cc1)C(N)=O)[C@@H](C)O)[C@@H](C)CC` [[Nle17,Nle30]-PP(2-36), [Nle17, Nle30]PP2-36], for which the EC50 at human Y2 receptor (setting [1]) was > 1000 nM.
With “PLEPVYPGDNATPEQMAQYAADLRRYINALTRPRY-NH2 [[Ala-30]-PP(2-36), [Ala30]PP2-36]”, the EC50 at human Y2 receptor (setting [1]) and on human Y1 receptor (setting [2]) was > 1000 nM throughout.
Regarding “PLEPVYPGDNATPEQMAQYAADLRRYINNLTRPRY-NH2 [[Asn-30]-PP(2-36), [Asn30]PP2-36]”, the EC50 at human Y2 receptor (setting [1]) and at human Y1 receptor (setting [2]) was > 1000 nM throughout.
Turning to “PLEPVYPGDNATPEQMAQYAADLRRYINQLTRPRY-NH2 [[Gln-30]-PP(2-36), [Gln30]PP2-36]”, the EC50 on human Y2 receptor (setting [1]) and at human Y1 receptor (setting [2]) was > 1000 nM in each case.
As to “PLEPVYPGDNATPEQMAQYAADLRRYINTLTRPRY-NH2 [[Thr-30]-PP(2-36), [Thr30]PP2-36]”, the EC50 on human Y2 receptor (setting [1]) was > 1000 nM; at human Y4 receptor (human Y4-transformed COS-7 cells, [3H]-inositol phosphate turnover, peptide 45 min at 37 C, read-out: hY4 EC50) it was 1.07 nM; on human Y1 receptor (setting [2]), > 1000 nM.
“PLEPVYPGENATPEQLAQYAADLRRYINTLTRPRY-NH2 [[Glu10;Leu17;Thr-30]-PP(2-36), [Glu10, Leu17, Thr30]PP2-36]”: the values for the EC50 at human Y2 receptor, on human Y4 receptor and on human Y1 receptor were > 1000 nM, 1.07 nM and > 1000 nM, respectively.

Values taken from patent US8022035B2, “Y4 selective receptor agonists for therapeutic interventions” (7TM Pharma A/S, priority 2005, dated 2011).
